Experimental data published in publication PMC10223019, “Preclinical Evaluation of a PSMA-Targeting Homodimer with an Optimized Linker for Imaging of Prostate Cancer” (Molecules, 2023).
Where “and” joins values, the source holds several entries; their conditions need not be identical. Identical values can stand only once.

Key:
[1] = test system: PSMA; set-up: method as in PMID 27279903; conditions: PSMA-binding ligand with different chelators; cited from earlier work
[2] = set-up: method as in PMID 33495926; conditions: co-administration of maximum dose of 2000 pmoles PSMA-11; cited from earlier work
[3] = Stability in mouse serum, radio-HPLC; assay type: in vitro ADME; conditions: 24 h post-incubation, 37 °C, indium-111 labeled, intact fraction
Experimental: [^111In]In-22 or [^111In]In-30 (~35 MBq, 70 µL) was mixed with 330 μL of mouse serum and incubated at 37 °C for up to 24 h. After 1, 4, and 24 h incubation, 50 μL of the mouse serum solution was added to a separate vial containing 50 µL of acetonitrile. The sample was centrifuged at 5000× g for 20 min. The supernatant was analyzed by radio-HPLC.

[4] = test system: BALB/c nude mice bearing LS174T PSMA-positive tumor xenografts; experiment: Ex vivo biodistribution studies; assay type: in vivo
Experimental: Animal experiments were performed in 8–10 weeks old male BALB/c nude mice (Janvier Labs, Le Genest-Saint-Isle, France). Animals were housed in individually ventilated cages (Blue line IVC, 4 mice per cage) under nonsterile standard conditions with cage enrichment present and free access to chlorophyll-free animal chow (Sniff GmbH, Soest, Germany) and water and acclimated for 1 week before experiments. Mice were subcutaneously inoculated with 4.0 × 10^6 LS174T cells in the right flank, diluted in 100 μL of cell suspension. Seven days after tumor cell inoculation, when xenografts were approximately 0.2–0.3 cm^3, the tracers were injected intravenously via the tail vein. All experiments were approved by the institutional Animal Welfare Committee and were conducted in accordance with the guidelines of the Revised Dutch Act on Animal Experimentation (WOD).
Mice were intravenously injected with ~1 nmol of either [^111In]In-PSMA-617, [^111In]In-22 or [^111In]In-30 with molar activity of 5 MBq/nmol for ex vivo biodistribution studies. Mice (n = 4/timepoint) were euthanized by cervical dislocation at 1, 4, and 24 h p.i. A block group was included, and mice were euthanized at 4 h p.i. Organs were collected in tubes and counted in the gamma counter, where the calibration factor was determined by measuring different known activities of indium-111.

[5] = Stability in phosphate-buffered saline (PBS), radio-HPLC; assay type: physicochemical; conditions: 24 h post-incubation, 37 °C, indium-111 labeled, intact fraction
Experimental: [^111In]In-22 or [^111In]In-30 (~10 MBq, 20 µL) was mixed with 80 μL of PBS (0.01 M, pH 7.4) and incubated at 37 °C for up to 24 h. A sample of the PBS solution was loaded directly onto the radio-HPLC at 1, 4, and 24 h post-incubation.

[6] = LogD7.4 by shake-flask method (PBS/n-octanol); assay type: physicochemical; conditions: LogD7.4, PBS pH 7.4/n-octanol, indium-111 labeled compound
Experimental: The distribution coefficients (LogD7.4 values) were determined by a shake-flask method, in which 2 μL (~0.5 MBq) of the labeling solution ([^111In]In-22 or [^111In]In-30) were added to an Eppendorf tube containing 1 mL of PBS (0.01 M, pH 7.4)/n-octanol (v/v, 1:1). After vigorous vortexing, the solution was centrifuged at 2500× g for 15 min for phase separation. Samples (3 × 10 μL) of the two phases were taken out and measured in a gamma counter. LogD7.4 values were calculated by using the following equation: LogD7.4 = log [(counts in octanol phase)/(counts in aqueous phase)] and the experiment was performed in triplicate.

[7] = test system: PSMA expressing LS174T cells; experiment: Internalization and cell uptake assay; assay type: cell-based, human; conditions: 2 h 37 °C
Experimental: LS174T human colon carcinoma cells transfected with human PSMA were obtained from Dr. Sandra Heskamp (Radboud UMC, Nijmegen). Cells were cultured in RPMI-1640 media supplemented with 2 mM glutamine, 10% fetal bovine serum (FBS) and 0.3 mg/mL G418 (Geneticin, Sigma Aldrich, St. Louis, MO, USA).
Cells were seeded (1.2 × 10^6 cells/well) and cultured to confluency for 24 h prior to experiments. We prepared 10^−9 M solutions of [^111In]In-PSMA-617, [^111In]In-22, and [^111In]In-30 in internalization media (RPMI, 20 mM HEPES, 1% BSA, pH 7.4). The media were removed from each well, and they were rinsed twice with PBS at rt. 2 mL of the radioactive compound was then added to each well and incubated at 37 °C for 2 h. For the internalization assay, the media containing radioactive compound were removed, and each well was washed twice with cold PBS. A total of 1 mL of Glycine buffer (50 mM glycine, 100 mM NaCl, pH 2.8) was added immediately and incubated for 10 min at rt. The glycine wash was then collected into counting tubes (membrane-bound fraction). An extra wash was performed and collected in the same tubes. A total of 1 mL of NaOH (1 M) was then added to each tube and left for 15 min at rt. The lysate (internalized fraction) was then collected in separate counting tubes, together with one extra NaOH wash. Data were normalized to 1,000,000 cells and percentage added dose.

[8] = 4 h p.i. block group (excess unlabeled PSMA ligand)

## O=C(O)CCC(NC(=O)NC(CCCCNC(=O)C(Cc1ccc2ccccc2c1)NC(=O)C1CCC(CNC(=O)CCC(C(=O)O)N2CCN(CC(=O)O)CCN(CC(=O)O)CC2)CC1)C(=O)O)C(=O)O (stereo not shown) [NODAGA-conjugate]
[1]
  Internalization rate: 48.5 ± 16.4%

## O=C(O)CCc1ccc(O)c(CN(CCN(CC(=O)O)Cc2cc(CCC(=O)NCCCCCC(=O)NCCCC[C@H](NC(=O)N[C@@H](CCC(=O)O)C(=O)O)C(=O)O)ccc2O)CC(=O)O)c1 [PSMA-11]
[2]
  Decrease in kidney uptake of [177Lu]Lu-PSMA: 99.5%
  Decrease in salivary gland uptake of [177Lu]Lu-PSMA: 89.5%
  Decrease in tumor-uptake of [177Lu]Lu-PSMA: 44.5%

## CC(C)CC(NC(=O)C(Cc1ccccc1)NC(=O)C(CC(=O)O)NC(=O)CCCCCSC1=NNC(SCCCCCC(=O)NC(CC(=O)O)C(=O)NC(Cc2ccccc2)C(=O)NC(CC(C)C)C(O)CC(=O)NCCCCCC(=O)NCCCCC(NC(=O)NC(CCC(=O)O)C(=O)O)C(=O)O)=C2CCC(OC(=O)NCCCNC(=O)CN3CCN(CC(=O)[O-])CCN(CC(=O)[O-])CCN(CC(=O)[O-])CC3)CCCC12)C(O)CC(=O)NCCCCCC(=O)NCCCCC(NC(=O)NC(CCC(=O)O)C(=O)O)C(=O)O.[111In+3] (stereo not shown) [[^111In]In-30]
[3]
  Stability in Mouse Serum (%): 90.1%
[4]; 1 h p.i., i.v. ~1 nmol
  Blood uptake: 4.84 ± 1.44 % ID/g
  Bone uptake: 3.00 ± 0.53 % ID/g
  Heart uptake: 2.58 ± 0.79 % ID/g
  Intestines uptake: 0.87 ± 0.08 % ID/g
  Kidney uptake: 138.54 ± 1.44 % ID/g
  Liver uptake: 3.94 ± 0.26 % ID/g
  Lung uptake: 2.81 ± 0.36 % ID/g
  Muscle uptake: 1.13 ± 0.22 % ID/g
  Pancreas uptake: 1.47 ± 0.33 % ID/g
  Prostate uptake: 3.53 ± 2.05 % ID/g
  Skin uptake: 4.44 ± 1.06 % ID/g
  Spleen uptake: 3.30 ± 0.59 % ID/g
  Stomach uptake: 0.47 ± 0.34 % ID/g
  Tumor uptake: 4.95 ± 1.01 % ID/g
[4]; [8]
  Blood uptake: 0.78 ± 0.04 % ID/g
  Bone uptake: 1.27 ± 0.23 % ID/g
  Heart uptake: 0.82 ± 0.10 % ID/g
  Intestines uptake: 0.48 ± 0.03 % ID/g
  Kidney uptake: 120.93 ± 4.75 % ID/g
  Liver uptake: 1.84 ± 0.07 % ID/g
  Lung uptake: 0.84 ± 0.07 % ID/g
  Muscle uptake: 0.47 ± 0.08 % ID/g
  Pancreas uptake: 0.54 ± 0.07 % ID/g
  Prostate uptake: 0.94 ± 0.30 % ID/g
  Skin uptake: 1.42 ± 0.18 % ID/g
  Spleen uptake: 1.20 ± 0.14 % ID/g
  Stomach uptake: 0.33 ± 0.12 % ID/g
  Tumor uptake: 1.42 ± 0.14 % ID/g
[4]; 4 h p.i., i.v. ~1 nmol
  Blood uptake: 1.02 ± 0.29 % ID/g
  Bone uptake: 1.44 ± 0.54 % ID/g
  Heart uptake: 0.96 ± 0.22 % ID/g
  Intestines uptake: 0.92 ± 0.58 % ID/g
  Kidney uptake: 132.89 ± 11.12 % ID/g
  Liver uptake: 2.41 ± 0.35 % ID/g
  Lung uptake: 0.77 ± 0.52 % ID/g
  Muscle uptake: 0.64 ± 0.30 % ID/g
  Pancreas uptake: 0.66 ± 0.24 % ID/g
  Prostate uptake: 1.27 ± 0.69 % ID/g
  Skin uptake: 1.92 ± 0.49 % ID/g
  Spleen uptake: 1.40 ± 0.20 % ID/g
  Stomach uptake: 0.31 ± 0.08 % ID/g
  Tumor uptake: 2.94 ± 0.36 % ID/g
[4]; 24 h p.i.
  Tumor-to-muscle (T/M) ratio: 15
[4]; 24 h p.i., i.v. ~1 nmol
  Blood uptake: 0.09 ± 0.01 % ID/g
  Bone uptake: 0.60 ± 0.04 % ID/g
  Heart uptake: 0.21 ± 0.01 % ID/g
  Intestines uptake: 0.19 ± 0.06 % ID/g
  Kidney uptake: 26.86 ± 2.37 % ID/g
  Liver uptake: 0.80 ± 0.04 % ID/g
  Lung uptake: 0.28 ± 0.03 % ID/g
  Muscle uptake: 0.15 ± 0.03 % ID/g
  Pancreas uptake: 0.17 ± 0.00 % ID/g
  Prostate uptake: 0.40 ± 0.10 % ID/g
  Skin uptake: 0.77 ± 0.13 % ID/g
  Spleen uptake: 0.58 ± 0.04 % ID/g
  Stomach uptake: 0.11 ± 0.07 % ID/g
  Tumor uptake: 1.57 ± 0.17 % ID/g
[4]; at 1 and 4 h p.i.
  Tumor-to-muscle (T/M) ratio: 4–5
[5]
  Stability in PBS (%): 90.8%
[6]
  logD: −2.44 ± 0.07
[7]; 10^-9 M, NaOH lysate
  Internalized fraction: 3.51 ± 0.68 % AD
[7]; 10^-9 M, glycine wash
  Membrane-bound uptake: 0.26 ± 0.09 % AD
[7]; 10^-9 M, normalized to 1,000,000 cells
  Total uptake: 3.79 ± 0.74 % AD
[7]
  Internalized fraction as share of total uptake (internalization): 92% and 92.6%
  Membrane-bound uptake as share of total uptake: 7.4%
